# Experimental data as given in PubChem BioAssay (NCI).
#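 Test compounds were applied to cells in 96-well plates for 48 hours at 5 doses. At the GI50, growth is halved. TGI: concentration producing complete growth inhibition.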
# Key:
# Test in all cases: NCI tumour cell line growth inhibition, 48 h
# OVCAR-5 ovarian = system: OVCAR-5 ovarian
# NCI-H226 lung = system: NCI-H226 lung
# SR leukemia = system: SR leukemia
# RPMI-8226 leukemia = system: RPMI-8226 leukemia
# SNB-75 CNS = system: SNB-75 CNS
# U251 CNS = system: U251 CNS
# A549 NSCLC = system: A549 NSCLC
# HCC-2998 colon = system: HCC-2998 colon
# UO-31 renal = system: UO-31 renal
# ACHN renal = system: ACHN renal
# CCRF-CEM leukemia = system: CCRF-CEM leukemia
# KM12 colon = system: KM12 colon
# CAKI-1 renal = system: CAKI-1 renal
# MDA-MB-231 breast = system: MDA-MB-231 breast
# SF-295 CNS = system: SF-295 CNS
# SN12C renal = system: SN12C renal
# NCI/ADR-RES ovarian = system: NCI/ADR-RES ovarian
# MCF7 breast = system: MCF7 breast
# K-562 leukemia = system: K-562 leukemia
# SW-620 colon = system: SW-620 colon
# RXF 393 renal = system: RXF 393 renal
# OVCAR-8 ovarian = system: OVCAR-8 ovarian
# SK-MEL-2 melanoma = system: SK-MEL-2 melanoma
# M14 melanoma = system: M14 melanoma
# BT-549 breast = system: BT-549 breast
# 786-0 renal = system: 786-0 renal
# OVCAR-4 ovarian = system: OVCAR-4 ovarian
# MOLT-4 leukemia = system: MOLT-4 leukemia
# DU-145 prostate = system: DU-145 prostate
structure (smiles),measurement,setting,value
O=C(Nc1ccc(Cl)c(Cl)c1)Nc1ccccc1O,GI50,OVCAR-5 ovarian,15.7 µM
same,TGI,OVCAR-5 ovarian,53.2 µM
same,GI50,NCI-H226 lung,15.9 µM
same,TGI,NCI-H226 lung,53.7 µM
same,GI50,SR leukemia,4.57 µM
same,TGI,SR leukemia,24.8 µM
same,GI50,RPMI-8226 leukemia,3.37 µM
same,TGI,RPMI-8226 leukemia,32.3 µM
same,GI50,SNB-75 CNS,13.7 µM
same,TGI,SNB-75 CNS,50.5 µM
same,GI50,U251 CNS,6.41 µM
same,TGI,U251 CNS,25.3 µM
same,GI50,A549 NSCLC,6.23 µM
same,TGI,A549 NSCLC,22.5 µM
same,GI50,HCC-2998 colon,5.56 µM
same,TGI,HCC-2998 colon,19.6 µM
same,GI50,UO-31 renal,2.48 µM
same,TGI,UO-31 renal,18.4 µM
same,GI50,ACHN renal,3.9 µM
same,TGI,ACHN renal,51.5 µM
same,GI50,CCRF-CEM leukemia,3.35 µM
same,TGI,CCRF-CEM leukemia,68.7 µM
same,GI50,KM12 colon,3.35 µM
same,TGI,KM12 colon,13.7 µM
same,GI50,CAKI-1 renal,3.72 µM
same,TGI,CAKI-1 renal,20.4 µM
same,GI50,MDA-MB-231 breast,10 µM
same,TGI,MDA-MB-231 breast,34.2 µM
same,GI50,SF-295 CNS,3.06 µM
same,TGI,SF-295 CNS,11.3 µM
same,GI50,SN12C renal,8.4 µM
same,TGI,SN12C renal,25.1 µM
same,GI50,NCI/ADR-RES ovarian,3.59 µM
same,TGI,NCI/ADR-RES ovarian,28.5 µM
same,GI50,MCF7 breast,4.14 µM
same,TGI,MCF7 breast,21.3 µM
same,GI50,K-562 leukemia,3.4 µM
same,TGI,K-562 leukemia,76.8 µM
same,GI50,SW-620 colon,5.42 µM
same,TGI,SW-620 colon,19.5 µM
same,GI50,RXF 393 renal,15 µM
same,TGI,RXF 393 renal,35.6 µM
same,GI50,OVCAR-8 ovarian,5.1 µM
same,TGI,OVCAR-8 ovarian,32.4 µM
same,GI50,SK-MEL-2 melanoma,5.51 µM
same,TGI,SK-MEL-2 melanoma,17 µM
same,GI50,M14 melanoma,17.7 µM
same,TGI,M14 melanoma,61.9 µM
same,GI50,BT-549 breast,24.9 µM
same,TGI,BT-549 breast,91.3 µM
same,GI50,786-0 renal,25.2 µM
same,TGI,786-0 renal,75.1 µM
same,GI50,OVCAR-4 ovarian,5.44 µM
same,TGI,OVCAR-4 ovarian,> 100 µM
same,GI50,MOLT-4 leukemia,3.15 µM
same,TGI,MOLT-4 leukemia,49.1 µM
same,GI50,DU-145 prostate,9.75 µM
same,TGI,DU-145 prostate,31.1 µM
